This note sets out measurements from patent US9029451B2, “Waterborne coating compositions that include 2,2,4-trimethyl-3-oxopentanoate esters as reactive coalescents” (Eastman Chemical Company, priority 2010, dated 2015).

Series [1] is described as follows: Hydrolytic stability in latex at 120° F., pH and Brookfield viscosity. The format is physicochemical. The note with it: Rhoplex SG-10M; for hydrolytic stability, in words: compared with industry standards. On the procedure: Approximately 100 grams of either Rhoplex AC 2508 (Rohm & Haas acrylic polymer emulsion) or Rhoplex SG-10M (Rohm & Haas acrylic polymer emulsion) was weighed out into a 4 ounce jar and 10 phr (parts per hundred resin) of the coalescing aid was added (based on percent solids of the emulsion by weight). The sample was placed on lab rollers for 24 hours before the initial pH and viscosity was taken. The viscosity was measured by a Brookfield viscometer in centipoises. The sample was then placed into a lab oven at 120° F. The pH and viscosity was checked weekly for four weeks (Tables 3 & 4). Any change in the appearance of the sample such as gel particles or phase separation was recorded weekly also.

Series [2] is described as follows: % non-volatile, 110° C. for 1 hour (ASTM D2369). The format is physicochemical. The note with it: 110° C. for 1 hour. On the procedure: 2,2,4-trimethyl-3-oxopentanoate esters useful as reactive coalescents according to the invention include those having a weight percent volatile content of less than 50%, as measured according to ASTM Method D2369. This test may be conducted generally by heating the sample in a forced air oven at 110° C. for 60 minutes. The weight loss after the test is deemed to result from a loss of volatiles originally present in the sample; the percent volatile present in the original sample may then be calculated. Although the cited test can be conducted on coating compositions containing other components such as latex polymers, the values cited herein may be obtained from a sample of the coalescent itself. Thus, the weight percent volatile of a coalescent may be used herein as a yardstick to measure the amount of VOC the coalescent would contribute to the VOC of a coating composition.

Series [3] is described as follows: MFFT testing, coalescing efficiency. The note with it: linear regression. On the procedure:
The MFFT samples were prepared by weighing out 20 grams (+/−0.01 g) of emulsion into 50 ml beakers. The beakers of emulsion were placed on magnetic stirrers and the coalescing aid added dropwise by pipet. The weight of the drops were determined by adding 40 drops of the coalescing aid to a tared weighing dish, then the weight per drop was calculated by taking an average of the total weight (total weight divided by 40 drops). The coalescing aid was added to the emulsion based on solids by weight. The MFFT samples were allowed to stir for approximately 15 minutes, transferred to 8 dram vials and placed onto lab rollers and allowed to equilibrate for at least 24 hours. The samples were then drawn down on the MFFT bar, which is typically set on range #2 (0° to 18° C.), and the films allowed to dry. The areas in which the films have stopped cracking are visually determined and the MFFT value is read from the scale on the instrument and converted to degrees Fahrenheit. Linear Regression was used to calculate the amount of coalescing aid required to lower the films MFFT to 40° F. In Table #5, the phr40 values (parts per hundred resin based on solids by weight) are the amount of coalescing aid required to reduce the MFFT to 40° F. A lower number indicates the coalescent is more efficient at reducing the MFFT of the film.

The nature of series [4]: Boiling point of coalescent. The format is physicochemical. On the procedure: The novel compounds were evaluated for their coalescing properties and compared to 2,2,4-trimethylpentane-1,3-diol monoisobutyrate (Texanol) and Optifilm Enhancer 400 (OE 400), two coalescents that are widely used in industry (Table 2).
Series [5] in a line: Water miscibility, % organic in water method (gravimetric). In kind it is physicochemical. The note with it: saturation point. On the procedure: (§1) Water miscibility was measured by the following methods:
% Organic in Water Method:
The novel coalescent was added drop wise to 25 mL Milli-Q water and the mixture stirred at 1000 rpm for 10 minutes. If the coalescent dissolved, an additional drop or drops were added until traces of the organic solvent remained after the mixture had been stirred for 20 minutes. The percent organic solvent at the saturation point was determined gravimetrically.

A further series can be described thus: Density, ASTM D 1475-98. In kind it is physicochemical.
A short description of series [6]: Water miscibility, % water in solvent method (Karl Fischer). The format is physicochemical. The note with it: stirred approx. 48 hours. On the procedure:
as §1
% Water in Solvent Method:
Approximately 5-10 mL of the novel coalescent was slowly added to 10-15 mL Milli-Q water in an 8-dram vial. The mixture was slowly stirred for approximately 48 hours at 100-150 rpm. The organic layer was analyzed in triplicate for percent water by Karl Fischer methodology.

Each structure is given as a SMILES string.

Take `CCCCOCCOCCOC(=O)C(C)(C)C(=O)C(C)C` [Example 5, 2-(2-Butoxyethoxy)ethyl 2,2,4-trimethyl-3-oxopentanoate]: the “Viscosity (cps)” value in series [1] (10 phr coalescent, Initial) came out at 548 cps; in series [1] (10 phr, 120° F., 1 week) it was 631 cps; in series [1] (10 phr, 120° F., 2 weeks), 461 cps; in series [1] (10 phr, 120° F., 3 weeks), 458 cps; in series [1] (10 phr, 120° F., 4 weeks), 511 cps. Also, the pH is listed as 8.6 in series [1] (10 phr coalescent, Initial); 8.3 in series [1] (10 phr, 120° F., 1 week); 8.7 in series [1] (10 phr, 120° F., 2 weeks); 8.6 in series [1] (10 phr, 120° F., 3 weeks); 8.2 in series [1] (10 phr, 120° F., 4 weeks). Moreover, the “hydrolytic stability, in words” value in series [1] is “better than the industry standards”. In addition, the “% non-volatile @ 110° C. for 1 hour” value in series [2] is 64.0%. Besides, the “phr of Coalescent required to lower MFFT to 40° F.” value in series [3] (latex Acronal 296D) amounted to 4.2 phr; in series [3] (latex Rhoplex SG-10M), 4.6 phr; in series [3] (latex Ucar 379G), 0.9 phr. In series [4], the “Boiling Point (° C. @ 760 torr)” value was 272.1 °C. The “Water Miscibility % solvent in water layer” value in series [5] is 0.02%. In the series “Density, ASTM D 1475-98”, the “Density (lbs/gal)” value stood at 8.02 lbs/gal. In addition, in series [6], the “Water Miscibility % water in solvent layer” value is given as 0.40%.

As to `CCCCC(CC)COCCOC(=O)C(C)(C)C(=O)C(C)C` (centres unmarked) [Example 6, 2-(2-Ethylhexyloxy)ethyl 2,2,4-trimethyl-3-oxopentanoate], the “Viscosity (cps)” value in series [1] (10 phr coalescent, Initial) was 474 cps; in series [1] (10 phr, 120° F., 1 week) it was 585 cps; in series [1] (10 phr, 120° F., 2 weeks), 484 cps; in series [1] (10 phr, 120° F., 3 weeks) it was 347 cps; in series [1] (10 phr, 120° F., 4 weeks) it was 461 cps. Moreover, the pH in series [1] (10 phr coalescent, Initial) is 8.6; in series [1] (10 phr, 120° F., 1 week) it was 8.4; in series [1] (10 phr, 120° F., 2 weeks) it was 8.8; in series [1] (10 phr, 120° F., 3 weeks) it was 8.8; in series [1] (10 phr, 120° F., 4 weeks), 8.4. Also, the “hydrolytic stability, in words” value in series [1] is “better than the industry standards”. The “% non-volatile @ 110° C. for 1 hour” value in series [2] turned out to be 58.7%. In addition, the “phr of Coalescent required to lower MFFT to 40° F.” value is 5.0 phr in series [3] (latex Acronal 296D), 4.0 phr in series [3] (latex Rhoplex SG-10M) and 1.3 phr in series [3] (latex Ucar 379G). For the same compound, the “Boiling Point (° C. @ 760 torr)” value in series [4] turned out to be 281.6 °C. For the same compound, the “Water Miscibility % solvent in water layer” value in series [5] was found to be 0.00%. For the same compound, in the series “Density, ASTM D 1475-98”, the “Density (lbs/gal)” value was found to be 7.80 lbs/gal. Also, the “Water Miscibility % water in solvent layer” value in series [6] came out at 0.03%.
